Tests used:
Type in all cases: in vivo, human
[1] = system: post trauma pain in the pinned ankle; test: Example 34: ankle pain after surgical insertion of metal screws; conditions: for extent of pain relief: 6% in WEP 244, topical
Description: A subject with above described post trauma pain at the end of each day experienced painful discomfort in the pinned ankle. […] Complete relief lasted nearly 24 hours. At the end of the next day, the ankle was as painful as the days before. Subject applied 6% C20 in same liquid vehicle.

psoriatic arthritis = test: Example 35: psoriatic arthritis, topical C20 and C26
Description: A subject with a 40 year history of psoriasis and several years of psoriatic arthritis topically applied the formulations cited in Example 34 above. Formulation of C20 was applied to both hands. […] The formulation of C26 was applied to the left ankle and foot, pain of which was relieved in about 5 minutes and lasted for 4-5 hours.

[2] = system: rheumatoid arthritis; rheumatoid nodule; test: Example 13: rheumatoid arthritis fingers, nodule injection and glove application; conditions: nodule injected with 0.15 ml of 2% aqueous solution/suspension once weekly, four injections; over 9 weeks
Description: A subject noted changes in their fingers that appeared to be compatible with the diagnosis of early rheumatoid arthritis in autumn of the year. At about one month later there appeared over the terminal interphalangeal joint of the left third finger a raised inflammatory nodule compatible with the diagnosis of a rheumatoid nodule. The nodule was injected with 0.15 ml of a 2% aqueous solution/suspension of creatine monohydrate once weekly for four injections. […] Thereafter, for a period of one month, the subject wore a nitrile glove containing a few drops N-acetyl ethyl creatine 3% dissolved in water: propylene glycol 8:2 for about an hour twice daily on the left hand only.

[3] = system: arthritis of cervical and thoracic spine; test: Example 14: subcutaneous injection over sites of spinal pain
Description: A physician subject with continually worsening osteoarthritis of multiple joints for 15-16 years, prepared a sterile aqueous injectable solution/suspension of 2% creatine monohydrate. Under their direction, medical assistants were instructed on techniques to give subcutaneous injections of the 2% aqueous solution/suspension with either a 1 ml syringe with 27 gauge 13 mm needle or with a 1 ml insulin syringe with 30 gauge 8 mm needle.
Five intervertebral painful sites of arthritis of cervical and thoracic spine, identified by finger pressure, received a single injection of 0.3 ml of the solution.

[4] = system: psoriatic arthritis, painful, swollen and erythematous right ankle; test: Example 15: subcutaneous injection over ankle with psoriatic arthritis; conditions: 0.5 ml of 2% subcutaneous
Description: A diabetic subject with psoriasis for over 4 decades, and worsening psoriatic arthritis for about 10 years, presented with an acutely painful, swollen and erythematous right ankle. Using a 1 ml insulin syringe with short needle they injected 0.5 ml of the 2% creatine monohydrate as described above into a subcutaneous site of the anterior ankle.

[5] = system: arthritic pain in the right hip joint; test: Example 16: subcutaneous injection for hip pain
Description: A subject who for several weeks was experiencing disabling arthritic pain in the right hip joint, was given two subcutaneous injections of a sterile 2% aqueous solution/suspension of creatine monohydrate over the point of pain, 0.5 ml given first, and 0.6 ml given five days later. […] A third subcutaneous injection of 0.7 ml of the 2% creatine monohydrate solution/suspension was given over the point of joint pain elicited by finger pressure. […] Hip remained pain free for another 2 weeks.

dental pain = test: Example 17: post dental surgery pain; conditions: about 1 gram powder in mouth
Description: A subject had three teeth, #23, 24 and 25 extracted at 12 noon, then had two implants posted immediately after. At about 6 pm, subject started to feel pain in the gum area after lidocaine anesthesia wore off. […] The subject took about 1 gram creatine monohydrate powder into mouth. The powder, as it dissolved in saliva, was rinsed for approximately 5 minutes, then swallowed. The dental pain stopped in about 20 minutes, and relief lasted for 8 hours.

[6] = system: Rheumatoid Arthritis (RA); test: Example 26: rheumatoid arthritis, intralesional injection and topical; conditions: 0.15 ml of 2% aqueous solution/suspension once weekly, 4 injections; over 9 weeks
Description: A subject, described in an earlier Example, after approximately 4 months of worsening symptoms, and finger joint enlargements on both hands, realized that they were rapidly developing RA, especially when a rheumatoid nodule enlarged over the terminal joint of the left […] finger to a size of approximately 1 cm in diameter, and about 3 mm thick. The nodule was initially injected with 0.15 ml of a 2% aqueous solution/suspension of creatine monohydrate once weekly for 4 injections. […] Thereafter the subject wore a nitrile glove containing a few drops of C15 3-9% dissolved in WP 82 for an hour twice daily on the left hand only. After another 2 months C15 9% in WP 82 was topically applied by means of their wearing nitrile gloves containing the C15 solution for 1 hour twice daily. […] It is intended for the subject to continue topical treatment in one form or another for an indefinite time forward.

pain in the left ankle = test: Example 8: post fracture acute ankle pain; conditions: before the test
From the text: A subject with a history of fractured left ankle seven years earlier, who had worn a plaster cast for several weeks at that time, related that for the past three months disturbing and increasing pain in the left ankle, which was occurring daily and was disturbing their sleep every night. […] They were provided 8 ounces of the above Formulation A (Example 4), to be applied to the painful ankle as needed.

[7] = system: painful swollen right knee; test: Example 9: painful swelling of knee joint, three topical formulations; conditions: before the test
Description: A subject with relentless painful swollen right knee for 3-4 years, not relieved by oral ibuprofen, was tested and rated analgesic efficacy of the three following formulations applied topically to the knee. [table] [table] [table]

In the case of CCOC(=O)CN(C)C(N)=NC(=O)c1ccccc1 [Compound C20, N-benzoyl ethyl creatinate], the “extent of pain relief” value [1] is reported as “Some relief did occur but not complete as with C26”, the “extent of pain relief” value (psoriatic arthritis; 6% in WEP 244 applied to both hands) is reported as “completely relieved” and the duration of relief (psoriatic arthritis; both hands) is reported as 4 h. The “time to pain relief” value (psoriatic arthritis; both hands) was “about 2 minutes”.
CCOC(=O)CN(C)C(N)=NC(=O)c1ccccc1OC(C)=O [Compound C26, N-2-acetoxybenzoyl ethyl creatinate] was tested, and the “duration of complete relief” value ([1]; 6% in WEP 244) was roughly 24 h, the “time to pain relief” value ([1]; 6% in WEP 244) was no more than 1 min and the “extent of pain relief” value [1] was “completely relieved the pain”. The “extent of pain relief” value (psoriatic arthritis; 6% in WEP 244 applied to left ankle and foot) was “relieved”, the duration of relief (psoriatic arthritis; left ankle and foot) was 4 to 5 h and the “time to pain relief” value (psoriatic arthritis; left ankle and foot) was “about 5 minutes”.
For CN(CC(=O)O)C(=N)N.O [creatine monohydrate], the “resolution of rheumatoid nodule” value [2] was “the nodule resolved almost completely”, the “extent of pain relief” value ([3]; single subcutaneous injection of 0.3 ml of 2% aqueous solution/suspension at five intervertebral sites) was “All sites/areas became pain free” and the “time to pain free after injection” value ([3]; subcutaneous 0.3 ml of 2% per site) was 2 to 3 h. For the same compound, the duration pain free ([3]; subcutaneous 0.3 ml of 2% per site, no further therapy) was 7 weeks, the “edema and erythema of the ankle” value [4] was “completely resolved within a week” and the “state of ankle four weeks after the injection” value [4] was “remained pain free, was of normal appearance, and was completely functional as a normal ankle”. The “time to resolution of ankle pain” value [4] was “about 30 minutes”, the “extent of pain relief” value ([4]; anterior ankle, person) was “Ankle pain completely resolved” and the “duration of complete relief of pain” value ([5]; after the first two injections) was 2 weeks. The duration pain free ([5]; after third injection) was 2 weeks, the “time to complete relief of pain” value ([5]; third injection, 0.7 ml) was 3 to 4 h and the “extent of pain relief” value ([5]; third subcutaneous injection, 0.7 ml of 2%) was “Complete relieve of pain”. The “extent of pain relief” value ([5]; two subcutaneous injections of 2% solution/suspension, 0.5 ml and 0.6 ml five days later, person) was “Complete relief of pain”, the duration of relief (dental pain) was 8 h and the “time until dental pain stopped” value (dental pain; rinsed approximately 5 minutes, swallowed, person) was “about 20 minutes”. For the same compound, the “resolution of rheumatoid nodule” value [6] was “the nodule resolved almost completely”.
CC(C)Cc1ccc(C(C)C(=O)O)cc1 (stereo not shown) [ibuprofen] was tested, and the “pain relief by oral comparator” value (pain in the left ankle) was “did relieve the pain for several hours, but the pain always recurred” and the “pain relief by oral comparator” value [7] was “not relieved”.
